Positions count from the first letter of the chain named.
Legend:
Assay in all cases: Saturation binding of WK(FITC)YMVm, flow cytometry on HEK293F cells
[1] = molecular target: T1, wild-type (WT) and mutant FPR2 (Homo sapiens, UniProt P25090, D281A); settings: FPR2 D281A
T1 construct: expressed in transfected cells; host or cells: HEK293F
Experimental: (§1) Flag-tagged wild-type and mutant FPR2s were cloned into the pTT5 vector and expressed in HEK293F cells. The cells were harvested, and washed with Hanks’ Balanced Salt Solution (HBSS) buffer supplemented with 0.5% bovine serum albumin and 20 mM HEPES, pH 7.4. The cells were then resuspended in the same buffer to the final concentration of 1 × 10^6 cells per ml. The cell-surface expression was measured as mentioned above. […] Mean fluorescent intensity of each well was then read by a FCM (flow cytometry) reader (Millipore). […] For competitive binding of fMLFK, cells were plated in 96-well plates (100,000 cells per well), and incubated with WK(FITC)YMVm at 4 °C for 1 h. The following concentrations of WK(FITC)YMVm were used: 10 nM (wild type, L81^2.60F, E89G, and V105^3.32A), 30 nM (D281^7.32G), 40 nM (H102^3.29F, V160^4.60A, L268^ECL3A, N285^7.36A, and F292^7.43A), and 100 nM (L164^4.64A and T177A). Then increasing concentrations of fMLFK (100 nM–1 mM) were added, and incubated for another 1 h on ice. Mean fluorescent intensity values were measured by flow cytometry. Data were analyzed using Prism 7.0.

[2] = molecular target: T2, wild-type (WT) and mutant FPR2 (Homo sapiens, UniProt P25090, E89G); settings: FPR2 E89G
T2 construct: expressed in transfected cells; host or cells: HEK293F
T2 sequence (P25090 1-351 E89G): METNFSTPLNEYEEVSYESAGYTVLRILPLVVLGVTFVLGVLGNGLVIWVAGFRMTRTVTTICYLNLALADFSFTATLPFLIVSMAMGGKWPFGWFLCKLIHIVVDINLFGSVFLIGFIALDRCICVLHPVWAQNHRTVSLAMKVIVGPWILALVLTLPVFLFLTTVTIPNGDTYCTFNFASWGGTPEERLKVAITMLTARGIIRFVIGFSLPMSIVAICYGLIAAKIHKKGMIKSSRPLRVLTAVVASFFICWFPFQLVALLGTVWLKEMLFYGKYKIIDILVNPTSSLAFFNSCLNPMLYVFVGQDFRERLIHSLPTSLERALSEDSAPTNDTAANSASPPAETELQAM
Experimental: as §1

[3] = molecular target: T3, wild-type (WT) and mutant FPR2 (Homo sapiens, UniProt P25090, F292A); settings: FPR2 F292A
T3 construct: expressed in transfected cells; host or cells: HEK293F
T3 sequence (P25090 1-351 F292A): T2 sequence (P25090 1-351 E89G) with G89E, F292A
Experimental: as §1

[4] = molecular target: T4, wild-type (WT) and mutant FPR2 (Homo sapiens, UniProt P25090, F5A); settings: FPR2 F5A
T4 construct: expressed in transfected cells; host or cells: HEK293F
T4 sequence (P25090 whole entry F5A): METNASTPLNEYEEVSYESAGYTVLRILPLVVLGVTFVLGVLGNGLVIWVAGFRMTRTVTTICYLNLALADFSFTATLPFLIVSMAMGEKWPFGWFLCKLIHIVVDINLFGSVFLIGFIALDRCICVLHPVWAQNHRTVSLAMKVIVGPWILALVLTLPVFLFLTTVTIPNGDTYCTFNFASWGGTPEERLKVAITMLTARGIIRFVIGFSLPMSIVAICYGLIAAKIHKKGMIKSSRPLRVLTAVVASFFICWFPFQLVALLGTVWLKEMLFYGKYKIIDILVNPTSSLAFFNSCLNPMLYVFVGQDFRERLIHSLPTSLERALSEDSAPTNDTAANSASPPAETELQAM
Experimental: as §1

[5] = molecular target: T5, wild-type (WT) and mutant FPR2 (Homo sapiens, UniProt P25090, H102F); settings: FPR2 H102F
T5 construct: expressed in transfected cells; host or cells: HEK293F
T5 sequence (P25090 1-351 H102F): T2 sequence (P25090 1-351 E89G) with G89E, H102F
Experimental: as §1

[6] = molecular target: T6, wild-type (WT) and mutant FPR2 (Homo sapiens, UniProt P25090, L198F); settings: FPR2 L198F
T6 construct: expressed in transfected cells; host or cells: HEK293F
T6 sequence (P25090 whole entry L198F): as the sequence (P25090 whole entry F5A) above, with A5F, L198F counted along it
Experimental: as §1

[7] = molecular target: T7, wild-type (WT) and mutant FPR2 (Homo sapiens, UniProt P25090, R205A); settings: mutant R205A
T7 construct: expressed in transfected cells; host or cells: HEK293F
T7 sequence (P25090 whole entry R205A): as the sequence (P25090 whole entry F5A) above, with A5F, R205A counted along it
Experimental: as §1

[8] = molecular target: T8, wild-type (WT) and mutant FPR2 (Homo sapiens, UniProt P25090, S211L)
T8 construct: expressed in transfected cells; host or cells: HEK293F
T8 sequence (P25090 other isoform, or with tags, fused parts or gaps S211L): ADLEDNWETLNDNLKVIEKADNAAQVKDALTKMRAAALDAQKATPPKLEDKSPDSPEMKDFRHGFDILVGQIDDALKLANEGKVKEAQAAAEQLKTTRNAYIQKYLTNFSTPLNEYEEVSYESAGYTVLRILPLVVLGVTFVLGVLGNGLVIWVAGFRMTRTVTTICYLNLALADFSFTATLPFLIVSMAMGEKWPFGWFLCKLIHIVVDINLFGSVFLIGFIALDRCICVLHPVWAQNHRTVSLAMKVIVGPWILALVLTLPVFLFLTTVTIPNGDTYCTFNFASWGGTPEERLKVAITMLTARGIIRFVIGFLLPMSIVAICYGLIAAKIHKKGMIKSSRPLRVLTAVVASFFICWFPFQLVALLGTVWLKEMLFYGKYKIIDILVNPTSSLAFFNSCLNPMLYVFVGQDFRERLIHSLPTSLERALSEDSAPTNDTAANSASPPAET
Experimental: as §1

[9] = molecular target: T9, wild-type (WT) and mutant FPR2 (Homo sapiens, UniProt P25090, T177A); settings: FPR2 T177A
T9 construct: expressed in transfected cells; host or cells: HEK293F
T9 sequence (P25090 1-351 T177A): T2 sequence (P25090 1-351 E89G) with G89E, T177A
Experimental: as §1

[10] = test system: wild-type (WT) and mutant FPR2; set-up: species or system human
Experimental: as §1

T1 sequence (P25090 whole entry D281A): as the sequence (P25090 whole entry F5A) above, with A5F, D281A counted along it

CSCC[C@H](NC(=O)[C@H](Cc1ccc(O)cc1)NC(=O)[C@H](CCCCNC(=S)Nc1ccc2c(c1)C(=O)OC21c2ccc(O)cc2Oc2cc(O)ccc21)NC(=O)[C@@H](N)Cc1c[nH]c2ccccc12)C(=O)N[C@H](C(=O)N[C@H](CCSC)C(N)=O)C(C)C [WK(FITC)YMVm]
Span (% of WT), saturation binding [1]: 42 ± 8 % of WT | Kd ([1]; mean ± s.e.m., n=3, SEM): 48.6 ± 17.6 nM | Span (% of WT), saturation binding [2]: 134 ± 7 % of WT | Kd ([2]; mean ± s.e.m., n=3, SEM): 29.3 ± 6.0 nM | Span (% of WT), saturation binding [3]: 54 ± 14 % of WT | Kd ([3]; mean ± s.e.m., n=3, SEM): 42.5 ± 14.7 nM | Span (% of WT), saturation binding [4]: 62 ± 7 % of WT | Kd ([4]; mean ± s.e.m., n=3, SEM): 15.1 ± 7.4 nM | Span (% of WT), saturation binding [5]: 44 ± 4 % of WT | Kd ([5]; mean ± s.e.m., n=3, SEM): 43.5 ± 16.0 nM | Span (% of WT), saturation binding [6]: 60 ± 9 % of WT | Kd ([6]; mean ± s.e.m., n=3, SEM): 21.4 ± 5.3 nM | WK(FITC)YMVm binding [7]: complete loss | Span (% of WT), saturation binding ([8]; FPR2 crystallization construct): 154 ± 21 % of WT | Kd ([8]; FPR2 crystallization construct (N-terminal bRIL, S211L, 5 C-terminal residues truncated), mean ± s.e.m., n=5, SEM): 27.7 ± 5.6 nM | Span (% of WT), saturation binding [9]: 66 ± 5 % of WT | Kd ([9]; mean ± s.e.m., n=3, SEM): 109 ± 34 nM | reduction of binding affinity of WK(FITC)YMVm ([10]; mutant F257Y vs WT): 7 fold | binding of WK(FITC)YMVm ([10]; mutants D281G and D281L): decreased binding | binding of WK(FITC)YMVm ([10]; mutations D106A and R201A): significantly impaired | binding of FPR2 to WK(FITC)YMVm ([10]; mutations V105F, L109A, F110A, V113A, L164W, F178A, F180A, W254A, F257A and M271A): abolish the binding

From paper PMC7058083, “Structural basis of ligand binding modes at the human formyl peptide receptor 2” (Nature Communications, 2020)
